Key:
[1] = Therapeutic index, ratio of CC50 for cat CRFK cells to EC50 for Feline immunodeficiency virus infected in cat FL-4 cells; format: cell-based; settings: for selectivity ratio: read-out: Ratio CC50/EC50; for Ratio CC50/EC50: crfk
[2] = Cytotoxicity against cat CRFK cells assessed as cell viability at 10 uM after 24 hrs by MTT assay; format: cell-based, Felis catus; settings: read-out: Activity
[3] = Cytotoxicity against cat CRFK cells assessed as cell viability after 7 days by MTT assay; format: cell-based, Felis catus; settings: for CC50 at 168 h: CRFK cells; for CC50: crfk, 168 h
[4] = tested on: Feline immunodeficiency virus; test: Antiviral activity against Feline immunodeficiency virus infected in cat FL-4 cells assessed as viral RNA production by RT-qPCR; format: functional, organism-based
[5] = Feline immunodeficiency virus, FL-4, read-out: EC50

Compound | EC50 [4, 5] | selectivity ratio [1] | viability at 24 h, 10 µM [2] | CC50 at 168 h [3] | Ratio CC50/EC50 [1] | CC50 [3] | EC50 ([4]; fl-4)
CCN1c2c(ssc2=S)Sc2ssc(=S)c21 | < 0.001 µM | > 31 | 98.8% | 0.031 µM |  |  | 
O=C(O)CCN1c2c(ssc2=S)Sc2ssc(=S)c21 | 0.379 µM | 4.5 | 97.2% | 1.72 µM |  |  | 
CCN1c2c(ssc2=O)Sc2ssc(=O)c21 |  |  | 40.2% |  | ND(toxic) | ND(toxic) | ND(toxic)
CC(=O)OCCN1c2c(ssc2=O)Sc2ssc(=O)c21 |  |  | 39.2% |  | ND(toxic) | ND(toxic) | ND(toxic)
CCOC(=O)CCn1c2c(=O)ssc2c2ssc(=O)c21 |  |  | 78.2% |  | ND(toxic) | ND(toxic) | ND(toxic)
Cc1cn([C@H]2C[C@H](N=[N+]=[N-])[C@@H](CO)O2)c(=O)[nH]c1=O [ZIDOVUDINE] | 5.31 µM | > 18.8 | > 100% | > 100 µM |  |  | 

The remaining molecules from weak to strong by EC50 [4, 5], led by results:

EC50 [4, 5] | Compound | selectivity ratio [1] | viability at 24 h, 10 µM [2] | CC50 at 168 h [3] | Ratio CC50/EC50 [1] | CC50 [3] | EC50 ([4]; fl-4)
0.656 µM | CCn1c2c(=S)ssc2c2ssc(=S)c21 | 30.6 | > 100% | 20.1 µM |  |  | 
0.642 µM | CCOC(=O)CCN1c2c(ssc2=O)Sc2ssc(=S)c21 | 3.5 | 91.2% | 2.27 µM |  |  | 
0.345 µM | CCN1c2c(ssc2=O)Sc2ssc(=S)c21 | > 29 | > 100% | > 10 µM |  |  | 
0.0162 µM | CCOC(=O)CCN1c2c(ssc2=O)Sc2ssc(=O)c21 | 3.5 | 76.8% | 0.056 µM |  |  | 
0.00998 µM | Cc1nnc(C(=O)NC(C)(C)c2nc(C(=O)NCc3ccc(F)cc3)c(O)c(=O)n2C)o1 [RALTEGRAVIR] | > 100000 | > 100% | > 100 µM |  |  | 
